These results are taken from PMC10114980, “Triple targeting of mutant EGFR^L858R/T790M, COX-2, and 15-LOX: design and synthesis of novel quinazolinone tethered phenyl urea derivatives for anti-inflammatory and anticancer evaluation” (Journal of Enzyme Inhibition and Medicinal Chemistry, 2023).

One data set has as its target T1, ovine COX-1 (Ovis aries, UniProt P05979).
T1 sequence (P05979 25-600): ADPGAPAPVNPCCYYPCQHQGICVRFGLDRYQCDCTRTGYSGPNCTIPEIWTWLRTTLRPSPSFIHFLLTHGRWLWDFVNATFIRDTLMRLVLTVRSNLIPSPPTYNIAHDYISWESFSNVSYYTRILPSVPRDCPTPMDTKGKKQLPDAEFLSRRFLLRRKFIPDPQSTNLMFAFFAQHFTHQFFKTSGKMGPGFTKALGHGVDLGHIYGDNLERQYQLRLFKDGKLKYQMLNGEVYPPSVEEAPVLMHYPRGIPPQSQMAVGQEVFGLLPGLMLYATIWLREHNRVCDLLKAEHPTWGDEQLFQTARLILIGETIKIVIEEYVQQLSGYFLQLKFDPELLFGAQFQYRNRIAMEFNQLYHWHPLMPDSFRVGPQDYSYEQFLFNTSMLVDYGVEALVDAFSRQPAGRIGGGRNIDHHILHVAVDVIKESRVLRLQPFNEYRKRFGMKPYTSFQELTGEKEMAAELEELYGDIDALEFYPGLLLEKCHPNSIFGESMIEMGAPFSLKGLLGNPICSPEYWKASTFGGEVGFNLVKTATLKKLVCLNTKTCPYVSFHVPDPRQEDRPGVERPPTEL
Kind of data set: In vitro COX-1 inhibition assay kit (Cayman). The class given is biochemical. The settings on record: mean ± SEM, n = 3 replicates.

In a further data set the target is T2, human recombinant COX-2 (Homo sapiens, UniProt P35354).
T2 sequence (P35354 18-604): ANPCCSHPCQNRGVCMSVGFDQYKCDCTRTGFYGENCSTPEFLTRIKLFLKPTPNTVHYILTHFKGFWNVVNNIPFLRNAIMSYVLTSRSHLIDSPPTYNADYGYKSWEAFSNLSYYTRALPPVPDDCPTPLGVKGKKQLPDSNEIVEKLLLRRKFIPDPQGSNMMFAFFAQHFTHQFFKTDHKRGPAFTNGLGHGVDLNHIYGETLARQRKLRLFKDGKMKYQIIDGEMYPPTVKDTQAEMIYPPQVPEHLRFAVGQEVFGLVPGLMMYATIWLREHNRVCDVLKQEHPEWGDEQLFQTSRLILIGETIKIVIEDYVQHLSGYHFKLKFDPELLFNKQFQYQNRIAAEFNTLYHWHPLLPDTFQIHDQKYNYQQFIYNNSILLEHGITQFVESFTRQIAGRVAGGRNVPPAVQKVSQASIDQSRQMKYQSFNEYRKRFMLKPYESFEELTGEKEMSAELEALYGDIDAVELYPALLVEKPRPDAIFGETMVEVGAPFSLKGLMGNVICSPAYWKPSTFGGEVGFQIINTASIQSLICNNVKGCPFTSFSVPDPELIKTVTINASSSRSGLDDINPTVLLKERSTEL
Kind of data set: In vitro COX-2 inhibition assay kit (Cayman). Format: biochemical. The settings on record: for COX-2 SI: Selectivity index = COX-1 IC50/COX-2 IC50; for IC50: human recombinant COX-2, mean ± SEM, n = 3 replicates.

Data set [1] in a line: Cell viability assay against normal cell line (MTS). Format: cell-based. The settings on record: mouse, RAW 264.7 cells, concentrations up to 50 μM, read-out: cell viability percentage of the control values. The protocol: To evaluate the possible non-selective cytotoxic effect of the investigated compounds (6a, 6c, 6d, 6e, 6j, 6l, 6m, 6n, 6o, and 6p) on normal cells, their effect on RAW 264.7 cells viability was assessed at different concentrations (12.5, 25, 50, and 100 µM). Cell viability was measured using 3-(4,5-dimethylthiazol-2-yl)-5-(3-carboxymethoxyphenyl)-2-(4 sulfophenyl)-2H-tetrazolium (MTS) assay (Promega, Madison, Wisconsin) according to the manufacturer’s instructions.

For a further data set, the system named is CCRF-CEM. Kind of data set: NCI single dose screen, CCRF-CEM. The class given is cell-based. The settings on record: Homo sapiens, leukaemia, single dose 10^−5 M, read-out: growth inhibition percentage. The protocol:
(§1) Screening of the anticancer activity of the newly synthesised compounds (6a, 6c, 6d, 6e, 6j, 6l, 6m, 6n, 6o, and 6p) was performed by the US National Cancer Institute (NCI) using 60 different human tumour cell lines in accordance with standard procedures formerly reported.
(§2) In vitro anticancer screening was carried out for the selected compounds at a single dose (10^−5 M) against 60 different human tumour cell lines of nine different cancer cell types: leukaemia, lung, colon, CNS, melanoma, ovarian, renal, prostate, and breast cancers.

A further data set relates to A549/ATCC. Kind of data set: NCI single dose screen, A549/ATCC. The class given is cell-based. The settings on record: Homo sapiens, non-small cell lung cancer, single dose 10^−5 M, read-out: growth inhibition percentage. The protocol: as §1, §2
The next data set deals with HOP-92. Kind of data set: NCI single dose screen, HOP-92. Format: cell-based. The settings on record: Homo sapiens; HOP-92, non-small cell lung cancer; single dose 10^−5 M; read-out: growth inhibition percentage. The protocol: as §1, §2
The next data set concerns NCI-H23. Kind of data set: NCI single dose screen, NCI-H23. Format: cell-based. The settings on record: Homo sapiens; NCI-H23, non-small cell lung cancer; single dose 10^−5 M; read-out: growth inhibition percentage. The protocol:
as §1, §2

The test system of another data set is NCI-H522. Kind of data set: NCI single dose screen, NCI-H522. Format: cell-based. The settings on record: Homo sapiens; NCI-H522, non-small cell lung cancer; single dose 10^−5 M; read-out: growth inhibition percentage. The protocol: as §1, §2
The next data set deals with HCT-15. Kind of data set: NCI single dose screen, HCT-15. Format: cell-based. The settings on record: Homo sapiens; HCT-15, colon cancer; single dose 10^−5 M; read-out: growth inhibition percentage. The protocol:
as §1, §2

In another data set the test system is KM12. Kind of data set: NCI single dose screen, KM12. The class given is cell-based. The settings on record: Homo sapiens; KM12, colon cancer; single dose 10^−5 M; read-out: growth inhibition percentage. The protocol: as §1, §2
The test system of the next data set is SF-295. Kind of data set: NCI single dose screen, SF-295. The class given is cell-based. The settings on record: Homo sapiens; SF-295, CNS cancer; single dose 10^−5 M; read-out: growth inhibition percentage. The protocol: as §1, §2
The subject of the next data set is U251. Kind of data set: NCI single dose screen, U251. The settings on record: Homo sapiens, U-251; U251, CNS cancer; single dose 10^−5 M; read-out: growth inhibition percentage. Format: cell-based. The protocol: as §1, §2
The next data set deals with OVCAR-5. Kind of data set: NCI single dose screen, OVCAR-5. Format: cell-based. The settings on record: Homo sapiens; OVCAR-5, ovarian cancer; single dose 10^−5 M; read-out: growth inhibition percentage. The protocol: as §1, §2
The test system of the next data set is 786-0. Kind of data set: NCI single dose screen, 786-0. The class given is cell-based. The settings on record: Homo sapiens; 786-0, renal cancer; single dose 10^−5 M; read-out: growth inhibition percentage. The protocol: as §1, §2
The test system of a further data set is A498. Kind of data set: NCI single dose screen, A498. The class given is cell-based. The settings on record: Homo sapiens; A498, renal cancer; single dose 10^−5 M; read-out: growth inhibition percentage. The protocol:
as §1, §2

The test system of another data set is RXF 393. Kind of data set: NCI single dose screen, RXF 393. The class given is cell-based. The settings on record: Homo sapiens; RXF 393, renal cancer; single dose 10^−5 M; read-out: growth inhibition percentage. The protocol: as §1, §2
Another data set has as its system MCF7. Kind of data set: NCI single dose screen, MCF7. Format: cell-based. The settings on record: Homo sapiens; MCF7, breast cancer; single dose 10^−5 M; read-out: growth inhibition percentage. The protocol: as §1, §2

Method for human recombinant COX-2: (§3) The half-maximal inhibitory concentration (IC50, μM) was determined, and the COX-2 selectivity index (SI) was calculated as IC50 (COX-1)/IC50 (COX-2).
Method for ovine COX-1: as §3

Usually IC50 stands for the concentration needed to halve the response being measured. A word on the viability: it is a per cent measure of how many cells are alive, often set against a control. What is called inhibition is the change of the read-out against control, counted positive when it falls. For the molecule `CN1c2ccccc2C(=O)N(NC(=O)Nc2ccccc2)C1c1ccc([N+](=O)[O-])cc1` (centres unmarked) [Compound 6e, 1-(1-Methyl-2-(4-nitrophenyl)-4-oxo-1,4-dihydroquinazolin-3(2H)-yl)-3-phenylurea], the concentration for half-maximal inhibition (IC50) against ovine COX-1 was 9.53 ± 1.21 µM; on human recombinant COX-2 it was 0.83 ± 1.37 µM. For the same molecule, the “COX-2 SI” value on human recombinant COX-2 amounted to 11.48. Besides, in [1], the viability is more than 90%. Also, the inhibition at 10 µM with CCRF-CEM, in the data set on A549/ATCC, in the data set on HOP-92, in the data set on NCI-H23, in the data set with NCI-H522 and in the data set with HCT-15 was less than 10% in each case. Besides, the inhibition at 10 µM in the data set on KM12 is less than 10%; in the data set with SF-295, less than 10%; in the data set on U251 it was less than 10%; with OVCAR-5, less than 10%; in the data set on 786-0, 39.9%; in the data set with A498, less than 10%. Also, the inhibition at 10 µM in the data set on RXF 393 and in the data set with MCF7 was less than 10% each time.
`CN1c2ccccc2C(=O)N(NC(=O)Nc2ccc(F)cc2)C1c1ccccc1` (centres unmarked) [Compound 6m, 1-(4-Fluorophenyl)-3-(1-methyl-4-oxo-2-phenyl-1,4-dihydroquinazolin-3(2H)-yl)urea]: the values for the IC50 at ovine COX-1 and on human recombinant COX-2 were 12.4 ± 2.74 µM and 3.16 ± 1.22 µM, respectively. For the same molecule, the “COX-2 SI” value on human recombinant COX-2 amounted to 3.93. In addition, in [1], the viability is more than 90%. The inhibition at 10 µM with CCRF-CEM was less than 10%; in the data set with A549/ATCC, less than 10%; with HOP-92 it was less than 10%; in the data set on NCI-H23 it was less than 10%; in the data set on NCI-H522 it was less than 10%; in the data set with HCT-15, 14.3%. Moreover, the inhibition at 10 µM with KM12 is less than 10%; in the data set on SF-295 it was less than 10%; with U251, less than 10%; in the data set on OVCAR-5, less than 10%; with 786-0 it was 12.9%; in the data set on A498, less than 10%. Moreover, the inhibition at 10 µM in the data set with RXF 393 is less than 10%; with MCF7 it was 21.2%.
Consider `CN1c2ccccc2C(=O)N(NC(=O)Nc2ccc(F)cc2)C1c1ccc(F)cc1` (centres unmarked) [Compound 6n, 1-(4-Fluorophenyl)-3-(2–(4-fluorophenyl)-1-methyl-4-oxo-1,4-dihydroquinazolin-3(2H)-yl)urea], for which the IC50 turned out to be 10.5 ± 1.48 µM at ovine COX-1 and 0.65 ± 1.3 µM at human recombinant COX-2. Further, the “COX-2 SI” value on human recombinant COX-2 is recorded as 16.12. Also, the viability in data set [1] is more than 90%. Also, the inhibition at 10 µM was less than 10% with CCRF-CEM; less than 10% with A549/ATCC; less than 10% with HOP-92; less than 10% in the data set with NCI-H23; less than 10% in the data set with NCI-H522; 17.5% with HCT-15. For the same molecule, the inhibition at 10 µM with KM12 is 15.4%; with SF-295, less than 10%; in the data set on U251, less than 10%; in the data set with OVCAR-5 it was less than 10%; with 786-0, less than 10%; with A498, less than 10%. Moreover, the inhibition at 10 µM in the data set with RXF 393 is less than 10%; with MCF7 it was 29.9%.
For the molecule `CN1c2ccccc2C(=O)N(NC(=O)Nc2ccccc2)C1c1ccccc1` (centres unmarked) [Compound 6c, 1-(1-Methyl-4-oxo-2-phenyl-1,4-dihydroquinazolin-3(2H)-yl)-3-phenylurea], the IC50 against ovine COX-1 is 1 ± 1.78 µM; on human recombinant COX-2 it was 3.41 ± 1.83 µM. Besides, the “COX-2 SI” value on human recombinant COX-2 turned out to be 0.29. The viability in [1] is more than 90%. Also, the inhibition at 10 µM with CCRF-CEM, in the data set with A549/ATCC, in the data set on HOP-92, in the data set on NCI-H23, with NCI-H522 and in the data set on HCT-15 was less than 10% throughout. Moreover, the inhibition at 10 µM is less than 10% with KM12; less than 10% in the data set with SF-295; less than 10% in the data set with U251; less than 10% in the data set on OVCAR-5; 35.3% in the data set with 786-0; less than 10% with A498. The inhibition at 10 µM in the data set on RXF 393 and in the data set with MCF7 was less than 10% throughout.
With `CC1N(NC(=O)Nc2ccc(F)cc2)C(=O)c2ccccc2N1C` (centres unmarked) [Compound 6l, 1–(1,2-Dimethyl-4-oxo-1,4-dihydroquinazolin-3(2H)-yl)-3-(4-fluorophenyl)urea], the “COX-2 SI” value on human recombinant COX-2 is 0.05. The IC50 at human recombinant COX-2 came to 1.49 ± 1.11 µM. Besides, the viability in data set [1] was more than 90%. Also, the inhibition at 10 µM in the data set with CCRF-CEM, in the data set with A549/ATCC, with HOP-92, in the data set with NCI-H23, in the data set on NCI-H522 and with HCT-15 was less than 10% throughout. The inhibition at 10 µM in the data set on KM12, in the data set on SF-295, in the data set with U251, with OVCAR-5, in the data set with 786-0 and with A498 was less than 10% throughout. In addition, the figures for the inhibition at 10 µM in the data set on RXF 393 and with MCF7 were less than 10% and 10.7%, respectively.
